Reference: patent US10385007B2, “Monamine and monoamine derivatives as inhibitors of leukotriene A4 hydrolase” (Celtaxsys, Inc., priority 2016, dated 2019)
Like-named read-outs stand apart in the source and are kept apart here.

How the values were obtained:
[1] = target: T1, recombinant human LTA4 hydrolase (Homo sapiens, UniProt P09960); experiment: LTA4 hydrolase homogeneous time resolved fluorescence (HTRF) assay; type: biochemical
T1 sequence (P09960 1-611): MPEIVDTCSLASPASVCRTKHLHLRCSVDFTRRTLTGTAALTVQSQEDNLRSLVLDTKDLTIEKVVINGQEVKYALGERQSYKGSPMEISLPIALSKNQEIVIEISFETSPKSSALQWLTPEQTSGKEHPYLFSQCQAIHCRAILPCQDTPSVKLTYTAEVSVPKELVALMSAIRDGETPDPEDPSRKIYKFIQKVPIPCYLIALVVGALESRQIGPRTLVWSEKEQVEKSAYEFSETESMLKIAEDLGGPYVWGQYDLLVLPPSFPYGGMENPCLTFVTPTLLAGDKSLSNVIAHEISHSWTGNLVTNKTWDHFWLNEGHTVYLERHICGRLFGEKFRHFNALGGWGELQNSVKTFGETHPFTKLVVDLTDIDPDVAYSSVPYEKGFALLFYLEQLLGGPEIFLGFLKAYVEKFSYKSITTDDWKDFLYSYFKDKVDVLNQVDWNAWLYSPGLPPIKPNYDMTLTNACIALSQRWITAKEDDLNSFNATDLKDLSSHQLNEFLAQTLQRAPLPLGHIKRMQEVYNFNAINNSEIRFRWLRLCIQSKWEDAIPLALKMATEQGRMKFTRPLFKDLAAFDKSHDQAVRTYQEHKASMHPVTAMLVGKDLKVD
Procedure: Compounds of the invention were tested in the LTA4 hydrolase homogeneous time resolved fluorescence (HTRF) assay to determine their ability to inhibit the hydrolysis of LTA4 to LTB4. The assay analyzes the amount of LTB4 produced.
LTA4 HTRF assay is a two-step assay involving enzymatic conversion of LTA4 to LTB4, and subsequent quantification of LTB4, product with HTRF assay.
The enzymatic conversion of LTA4 to LTB4 was performed in 384-well plates at ambient temperature in a reaction mixture containing 50 mM HEPES (pH 7.5), 0.5% BSA (fatty acid free), 18 nM recombinant human LTA4 hydrolase, 150 nM LTA4, 1% DMSO in the absence or presence of a compound of the invention. Reaction was stopped after 10 minutes incubation by diluting the incubation mixture 10-fold in 50 mM phosphate, 0.1% casein buffer (pH 7.0).
LTB4 formed was quantified with the HTRF assay in which free LTB4 competes with LTB4-XL665 conjugate (acceptor) for anti-LTB4 monoclonal antibody labeled with Europium cryptate (donor), thereby inhibiting the fluorescence energy transfer.
The LTB4 HTRF 384-well assay was carried out by incubating LTB4 samples or standards with LTB4-XL665 conjugate (7.5 ng/well) and anti-LTB4 monoclonal antibody-Europium cryptate conjugate (0.5 ng/well) in 50 mM phosphate, 0.4 M KF and 0.1% casein, buffer (pH 7.0) for two hours at ambient temperature. Plates were read in a RubyStar plate reader (BmG Labtechnologies Inc., NC) simultaneously at 620 nm and 665 nm to obtain signal ratios of 665 nm/620 nm. Results of energy transfer were expressed as delta F (%) which equaled [(signal ratio of sample-signal ratio of negative control)/(signal ratio of negative control)]×100%. Negative controls were control samples without LTB4 or LTB4-XL665.
Sample LTB4 concentrations were calculated from the LTB4 standard curve using the 4-parameter fit equation. For determination IC50 values for a particular compound of the invention, eight serially diluted compound concentrations (at 1:3.16 dilution) were used in this assay. Controls without a compound of the invention or with a reference compound were run parallel in the same assay plate.

[2] = system: LTB4 production in human whole blood; experiment: Whole blood assay (LTB4 release upon calcium ionophore, ELISA), human; type: cell-based; conditions: production of LTB4 in whole blood, calcium ionophore stimulation
Procedure: Compounds of the invention were tested for their ability as inhibitors of LTA4 hydrolase in a whole blood assay using human, mouse, rat or dog whole blood in a manner similar to that described in Penning, T. D. et al., J. Med. Chem. (2000), 43(4): 721-735. In this assay, compounds were tested for their ability to inhibit LTB4 release upon stimulation with calcium ionophore. The LTB4 levels in supernatants were measured by ELISA.

[3] = target: T2, LTA4 hydrolase peptidase activity (Homo sapiens, UniProt P09960); experiment: Peptidase assay (hydrolysis of L-alanine-p-nitroanilide); type: biochemical; conditions: 29 nM enzyme, 1 mM L-alanine-p-nitroanilide, 1 hour
T2 sequence (P09960 1-611): T1 sequence (P09960 1-611)
Procedure: Inhibition of peptidase activity was measured for the compounds of the invention by using methods similar to those described in Kull, F. et al., The Journal of Biological Chemistry 1999, 274 (49): 34683-34690.
In brief, the enzyme (29 nM) was incubated with L-alanine-p-nitroanilide (1 mM) in 50 mM HEPES (pH 7.5), 100 mM KCL, 1% DMSO in the absence or presence of a compound of the invention for 1 hour at ambient temperature. Reaction was terminated by addition of acetic acid (1%). Formation of colored nitro-aniline was measured by the increase in absorbance at 405 nm in a Victor 2 plate reader (Wallac). Spontaneous hydrolysis of the substrate was corrected for by subtracting the absorbance of control incubations without enzyme.

[4] = inhibition of LTA4 to LTB4 hydrolysis, 18 nM enzyme, 150 nM LTA4, 10 minutes, read-out: Hydrolase IC50

Compound | IC50 [1, 4] | IC50 [2] | IC50 [3] | IC50 [1]
NCc1ccc(OCc2ccc(-c3ccccc3)cc2)cc1 [Example 1, 1-(4-phenylphenyl-1-methoxy)-4-aminomethylbenzene] | 300 nM | – | – | –
NCCc1ccc(OCc2ccc(-c3ccccc3)cc2)cc1 [Example 2, (4-phenylphenyl-1-methoxy)-4-phenylethylamine] | – | 47 nM | – | 41 nM
NCCc1ccc(Oc2ccc(Cc3ccccc3)cc2)cc1 [Example 3, 4-benzylphenoxy-4-phenylethylamine] | – | 89 nM | – | 44 nM
CN(CCOc1ccc(Cc2ccccc2)cc1)Cc1ccccc1Oc1ccc(C(=O)O)cc1 [Example 4, [N-2-(4-benzylphenoxy)ethyl]-N-methyl-(2-aminomethylphenoxy)-4-benzoic acid] | 100 nM | 370 nM | 32 nM | –
CN(CCOc1ccc(Cc2ccccc2)cc1)Cc1ccc(C(=O)O)cc1 [Example 6, [N-2-(4-benzylphenoxy)ethyl]-N-methyl-aminomethyl-4-benzoic acid] | 21 nM | 310 nM | – | –
CCOC(=O)C(N)Cc1ccc(Oc2ccc(Cc3ccccc3)cc2)cc1 (stereo not shown) [Example 9, ethyl 3-[4-(4-benzylphenoxy)phenyl]-2-aminopropanoate] | 130 nM | 350 nM | – | –
CN(CCOc1ccc(Cc2ccccc2)cc1)Cc1ccccc1Oc1cccc(C(=O)O)c1 [Example 12] | 15 nM | 150 nM | 23 nM | –

Continued, in another order:

IC50 [1, 4] | IC50 [2] | IC50 [3] | Compound | IC50 [1]
270 nM | 150 nM | – | NCc1ccc(Oc2ccc(Cc3ccccc3)cc2)cc1 [Example 5, 4-(4-benzylphenoxy)benzylamine] | –
84 nM | 880 nM | – | NC(Cc1ccc(Oc2ccc(Cc3ccccc3)cc2)cc1)C(=O)O (stereo not shown) [Example 7, 3-[4-(4-benzylphenoxy)phenyl]-2-aminopropanoic acid] | –
120 nM | 790 nM | – | COC(=O)C(N)Cc1ccc(Oc2ccc(Cc3ccccc3)cc2)cc1 (stereo not shown) [Example 8, methyl 3-[4-(4-benzylphenoxy)phenyl]-2-aminopropanoate] | –
260 nM | 910 nM | – | NC(CO)Cc1ccc(Oc2ccc(Cc3ccccc3)cc2)cc1 (stereo not shown) [Example 10, 3-[4-(4-benzylphenoxy)phenyl]-2-aminopropanol] | –
300 nM | – | 180 nM | NCc1cccnc1NCCOc1ccc(Cc2ccccc2)cc1 [Example 11, 2-(4-benzylphenoxy)ethylamino-3-aminomethylpyridine] | –
